Values of other authors in patent publication US10179172B2, “Liquid pharmaceutical formulations for injection comprising yellow 5 or orange G and uses thereof” (EAGLE BIOLOGICS, INC., priority 2013, dated 2019).
“And” between values parts separate entries of the source, which are not always exact repeats. Identical values can stand only once.

What was measured:
[1] = long-term clinical outcomes
[2] = tested on: respiratory syncytial virus; settings: two Phase III clinical trials, pediatric population

Substance | Patients achieving clinical remission [1] [%] | Reduction of the risk of hospitalization due to respiratory syncytial virus infection [2]
vedolizumab: mAb being developed by Millennium Pharmaceuticals for ulcerative colitis and Crohn's disease | ~60 | –
palivizumab: humanized mAb directed against an epitope in the A antigenic site of the F protein of respiratory syncytial virus | – | 55% and 45%
